In patent publication US8697403B2, “Process and microorganisms for production of lipids from lignocellulosic wastes or residues” (Neste Oil Oyj, priority 2010, dated 2014):

Test system: strain G009
Test: Lipase inhibition test: prevention of TAG degradation in cultivation of strain G009
Assay type: cell-based, Streptomyces albus
Conditions: G009, waste medium
Procedure: Also g/l values of TAGs were estimated by image analysis using Image J program. The standard curve was prepared using concentration scale from 1 g/l up to 40 g/l and the titre of lipids in the culture broth was measured against the standard curve. The whole culture broth (solid stage cultivations) or separated mycelia was extracted with an equal volume of chloroform-methanol (Clf-MeOH; 2:1). Tubes were incubated in a shaker at RT for 1 hour. After centrifugation sample was taken from the extract and analysed by TLC and/or by GC. Dry extract weight was determined by drying 1-5 ml of extract at RT for one day in air blow after which mass was determined by weighing. The mass was given as grams per 1 liter of the culture broth. The spores of the strain […] were cultivated in the medium containing the following raw materials in 1 L of tap water, pH 7: Dextrose 75 20 g, Bagasse 20 g, Biowaste from bakery and garden (1:1) 5 or 10 g, Algae 25 to 50 g, MgSO4.7 H2O 1 g, KH2PO4 1 g and CaCO3 3 g. The cultivation conditions were 28° C., 300 rpm for 11 days. After 6 days of cultivations, 0.05 g/l AgNO3 or 0.4% of TritonX100 solution containing 0.05 g/l of CaCO3. The flasks without the said supplements were considered as controls for lipase inhibition treatment study. Cultivation was continued in the same conditions for 5 days more. The samples were taken after 7, 8 and 11 days of cultivations according to the general sampling protocols used in this invention and the results of sampling are shown here. The parallel cultivations were done with two concentrations of both algae debris and biowaste and the upper row of each test condition gave a result with higher concentration of both waste fractions.

[1] = supplement added after 6 days, sample 11 day

O=[N+]([O-])[O-].[Ag+] [AgNO3]
Weight of Chloroform extract (g/l), 7 day (28° C., 300 rpm, supplement added after 6 days (0.05 g/l AgNO3 or 0.4% TritonX100 solution containing 0.05 g/l CaCO3), sample 7 day): 7.7 g/L | Quantity of TAGs g/l by Image J, 7 day (supplement added after 6 days, sample 7 day): 4.8 g/L | Quantity of TAGs g/l by Image J, 8 day (supplement added after 6 days, sample 8 day): 4.8 g/L | Quantity of TAGs g/l by Image J, 11 day [1]: 4.8 g/L | Weight of Chloroform extract (g/l), 11 day [1]: 8.5 g/L
